# Data reported in patent US20240158446A1, “CYCLIC COMPOUND HAVING SELECTIVE INHIBITORY ACTION ON KRAS OVER HRAS AND NRAS” (CHUGAI SEIYAKU KABUSHIKI KAISHA, priority 2021, published 2024).
# Key:
# [1] = molecular target: GDP-bound KRAS wild-type protein (Homo sapiens, UniProt P01116); test: Binding to KRAS by surface plasmon resonance (SPR), Single Cycle Kinetics; settings: SPR, Single Cycle Kinetics, 1:1 binding model; GDP-bound KRAS wild-type protein; read-out: KRAS KD
# [2] = system: human lung cancer strain NCI-H441;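 further: cell proliferation inhibition after four days measured by CellTiter-Glo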
# [3] = molecular target: GDP-bound HRAS wild-type protein (Homo sapiens, UniProt P01112); test: Binding to HRAS by surface plasmon resonance (SPR), Single Cycle Kinetics; settings: SPR; GDP-bound HRAS wild-type protein vs GDP-bound KRAS wild-type protein; KD ratio class
# Chain of GDP-bound HRAS wild-type protein (P01112 whole entry): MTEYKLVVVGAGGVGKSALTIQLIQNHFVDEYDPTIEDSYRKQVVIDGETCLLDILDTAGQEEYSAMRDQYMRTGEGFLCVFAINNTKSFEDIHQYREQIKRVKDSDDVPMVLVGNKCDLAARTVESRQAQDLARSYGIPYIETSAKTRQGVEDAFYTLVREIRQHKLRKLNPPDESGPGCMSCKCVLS
# [4] = molecular target: GDP-bound NRAS wild-type protein (Homo sapiens, UniProt P01111); test: Binding to NRAS by surface plasmon resonance (SPR), Single Cycle Kinetics; settings: SPR; GDP-bound NRAS wild-type protein vs GDP-bound KRAS wild-type protein; KD ratio class
# Chain of GDP-bound NRAS wild-type protein (P01111 whole entry): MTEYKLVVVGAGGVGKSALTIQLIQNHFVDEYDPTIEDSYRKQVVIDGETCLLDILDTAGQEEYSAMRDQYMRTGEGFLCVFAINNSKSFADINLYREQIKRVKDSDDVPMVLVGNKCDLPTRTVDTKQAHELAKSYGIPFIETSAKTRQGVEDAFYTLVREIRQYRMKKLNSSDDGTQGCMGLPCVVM
# Chain of GDP-bound KRAS wild-type protein (P01116 whole entry): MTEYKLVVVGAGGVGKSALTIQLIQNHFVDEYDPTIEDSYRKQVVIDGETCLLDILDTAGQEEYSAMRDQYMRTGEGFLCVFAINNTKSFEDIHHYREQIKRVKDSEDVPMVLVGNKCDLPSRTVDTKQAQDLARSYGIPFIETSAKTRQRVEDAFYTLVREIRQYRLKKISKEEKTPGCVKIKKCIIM
SMILES,Kd [1] [nM],IC50 [2] [nM],HRAS/KRAS (ratio of KD value for HRAS to KD value for KRAS) [3],NRAS/KRAS (ratio of KD value for NRAS to KD value for KRAS) [4]
CCO[C@@H]1C[C@H]2C(=O)NC3(CCC3)C(=O)N(C)[C@@H](C3CCCC3)C(=O)N(C)[C@H](C(=O)N(C)C)CC(=O)N(C)[C@@H](CC3CC3)C(=O)N[C@@H]([C@@H](C)CC)C(=O)N(C)CC(=O)N(C)[C@H]3C/C=C\CCN(C3=O)[C@@H](Cc3ccc(F)cc3)C(=O)N(C)CC(=O)N[C@@H](CCc3ccc(Cl)c(Cl)c3)C(=O)N2C1 [PP1478],0.34,102,A (a compound having 10 or more and less than 20 is denoted as A),A (a compound having 10 or more and less than 20 is denoted as A)
CCO[C@@H]1C[C@H]2C(=O)NC3(CCC3)C(=O)N(C)[C@@H](C3CCCC3)C(=O)N(C)[C@H](C(=O)N(C)C)CC(=O)N(C)[C@@H](CC3CC3)C(=O)N[C@@H]([C@@H](C)CC)C(=O)N(C)CC(=O)N(C)[C@H]3C/C=C\CCN(C3=O)[C@@H](Cc3ccc(F)cc3)C(=O)N(C)CC(=O)N[C@@H](CCc3cc(F)c(Cl)c(F)c3)C(=O)N2C1 [PP1479],0.49,140,B (a compound having 3 or more and less than 10 is denoted as B),A (a compound having 10 or more and less than 20 is denoted as A)
CCO[C@@H]1C[C@H]2C(=O)NC3(CCC3)C(=O)N(C)[C@@H](C3CCCC3)C(=O)N(C)[C@H](C(=O)N(C)C)CC(=O)N(C)[C@@H](CC(C)C)C(=O)N[C@@H]([C@@H](C)CC)C(=O)N(C)CC(=O)N(C)[C@H]3C/C=C\CCN(C3=O)[C@@H](Cc3ccc(F)cc3C)C(=O)N(C)CC(=O)N[C@@H](CCc3ccc(Cl)c(Cl)c3)C(=O)N2C1 [PP1480],0.92,85.8,B (a compound having 3 or more and less than 10 is denoted as B),A (a compound having 10 or more and less than 20 is denoted as A)
CCO[C@@H]1C[C@H]2C(=O)NC3(CCC3)C(=O)N(C)[C@@H](C3CCCC3)C(=O)N(C)[C@H](C(=O)N(C)C)CC(=O)N(C)[C@@H](CC(C)C)C(=O)N[C@@H]([C@@H](C)CC)C(=O)N(C)CC(=O)N(C)[C@H]3C/C=C\CCN(C3=O)[C@@H](Cc3ccc(F)cc3C)C(=O)N(C)CC(=O)N[C@@H](CCc3cc(F)c(Cl)c(F)c3)C(=O)N2C1 [PP1481],1.2,14.8,B (a compound having 3 or more and less than 10 is denoted as B),A (a compound having 10 or more and less than 20 is denoted as A)
CCO[C@@H]1C[C@H]2C(=O)NC3(CCC3)C(=O)N(C)[C@@H](C3CCCC3)C(=O)N(C)[C@H](C(=O)N(C)C)CC(=O)N(C)[C@@H](CC(C)C)C(=O)N[C@@H]([C@@H](C)CC)C(=O)N(C)CC(=O)N(C)[C@H]3C/C=C\CCN(C3=O)[C@@H](Cc3ccc(F)cc3)C(=O)N(C)CC(=O)N[C@@H](CCc3ccc(Cl)c(Cl)c3)C(=O)N2C1 [PP1482],0.45,76.4,B (a compound having 3 or more and less than 10 is denoted as B),A (a compound having 10 or more and less than 20 is denoted as A)
CCO[C@@H]1C[C@H]2C(=O)NC3(CCC3)C(=O)N(C)[C@@H](C3CCCC3)C(=O)N(C)[C@H](C(=O)N(C)C)CC(=O)N(C)[C@@H](CC(C)C)C(=O)N[C@@H]([C@@H](C)CC)C(=O)N(C)CC(=O)N(C)[C@H]3C/C=C\CCN(C3=O)[C@@H](Cc3ccc(F)cc3)C(=O)N(C)CC(=O)N[C@@H](CCc3cc(F)c(Cl)c(F)c3)C(=O)N2C1 [PP1483],0.51,90.3,B (a compound having 3 or more and less than 10 is denoted as B),A (a compound having 10 or more and less than 20 is denoted as A)
CCO[C@@H]1C[C@H]2C(=O)NC3(CCC3)C(=O)N(C)[C@@H](C3CCCC3)C(=O)N(C)[C@H](C(=O)N(C)C)CC(=O)N(C)[C@@H](CC3CC3)C(=O)N[C@@H]([C@@H](C)CC)C(=O)N(C)CC(=O)N(C)[C@H]3C/C=C\CCN(C3=O)[C@@H](Cc3ccc(C)cc3)C(=O)N(C)CC(=O)N[C@@H](CCc3cc(F)c(Cl)c(F)c3)C(=O)N2C1 [PP1484],0.45,59.3,A (a compound having 10 or more and less than 20 is denoted as A),A (a compound having 10 or more and less than 20 is denoted as A)
CCO[C@@H]1C[C@H]2C(=O)NC3(CCC3)C(=O)N(C)[C@@H](C3CCCC3)C(=O)N(C)[C@H](C(=O)N(C)C)CC(=O)N(C)[C@@H](CC3CC3)C(=O)N[C@@H]([C@@H](C)CC)C(=O)N(C)CC(=O)N(C)[C@H]3C/C=C\CCN(C3=O)[C@@H](Cc3ccc(C)cc3)C(=O)N(C)CC(=O)N[C@@H](CCc3ccc(Cl)c(Cl)c3)C(=O)N2C1 [PP1485],0.28,30.5,A (a compound having 10 or more and less than 20 is denoted as A),A (a compound having 10 or more and less than 20 is denoted as A)
CCO[C@@H]1C[C@H]2C(=O)NC3(CCC3)C(=O)N(C)[C@@H](C3CCCC3)C(=O)N(C)[C@H](C(=O)N(C)C)CC(=O)N(C)[C@@H](CC3CCCC3)C(=O)N[C@@H]([C@@H](C)CC)C(=O)N(C)CC(=O)N(C)[C@H]3C/C=C\CCN(C3=O)[C@@H](Cc3ccc(C)cc3)C(=O)N(C)CC(=O)N[C@@H](CCc3cc(F)c(Cl)c(F)c3)C(=O)N2C1 [PP1486],0.46,15,A (a compound having 10 or more and less than 20 is denoted as A),A (a compound having 10 or more and less than 20 is denoted as A)
"CCO[C@@H]1C[C@H]2C(=O)NC3(CCC3)C(=O)N(C)[C@@H](C3CCCC3)C(=O)N(C)[C@H](C(=O)N(C)C)CC(=O)N(C)[C@@H](CC3CC3)C(=O)N[C@@H]([C@@H](C)CC)C(=O)N(C)CC(=O)N(C)[C@H]3C/C=C\CCN(C3=O)[C@@H](Cc3ccc(F)cc3)C(=O)N(C)CC(=O)N[C@@H](CCc3cc(F)c(C(F)(F)F)c(F)c3)C(=O)N2C1 [PP1529, (2S,8S,12R,14S,20S,23S,27S,30S,36S,38Z)-20-cyclopentyl-27-(cyclopropylmethyl)-8-[2-[3,5-difluoro-4-(trifluoromethyl)phenyl]ethyl]-12-ethoxy-2-[(4-fluorophenyl)methyl]-N,N,4,19,22,26,32,35-octamethyl-30-[(1S)-1-methylpropyl]-3,6,9,15,18,21,25,28,31,34,42-undecaoxo-spiro[1,4,7,10,16,19,22,26,29,32,35-undecazatricyclo[34.5.1.0^10,14]dotetracont-38-ene-17,1′-cyclobutane]-23-carboxamide]",0.081,30.2,B (a compound having 3 or more and less than 10 is denoted as B),A (a compound having 10 or more and less than 20 is denoted as A)
CCCC[C@H]1C(=O)N[C@@H]([C@@H](C)CC)C(=O)N(C)CC(=O)N(C)[C@H]2C/C=C\CCN(C2=O)[C@@H](Cc2ccc(C(F)(F)F)cc2)C(=O)N(C)CC(=O)N[C@@H](CCc2cc(F)c(C(F)(F)F)c(F)c2)C(=O)N2C[C@H](OCC)C[C@H]2C(=O)NC2(CCC2)C(=O)N(C)[C@@H](C2CCCC2)C(=O)N(C)[C@H](C(=O)N(C)CC)CC(=O)N1C [PP1558],0.11,3.4,B (a compound having 3 or more and less than 10 is denoted as B),A (a compound having 10 or more and less than 20 is denoted as A)
CCCC[C@H]1C(=O)N[C@@H]([C@@H](C)CC)C(=O)N(C)CC(=O)N(C)[C@H]2C/C=C\CCN(C2=O)[C@@H](Cc2ccc(C(F)(F)F)cc2)C(=O)N(C)CC(=O)N[C@@H](CCc2ccc(C(F)(F)F)c(OC)c2)C(=O)N2C[C@H](OCC)C[C@H]2C(=O)NC2(CC(C)(C)C2)C(=O)N(C)[C@@H](C2CCCC2)C(=O)N(C)[C@H](C(=O)N(C)C)CC(=O)N1C [PP1561],0.064,2.7,B (a compound having 3 or more and less than 10 is denoted as B),A (a compound having 10 or more and less than 20 is denoted as A)
CCO[C@@H]1C[C@H]2C(=O)NC3(CC(C)(C)C3)C(=O)N(C)[C@@H](C3CCCC3)C(=O)N(C)[C@H](C(=O)N(C)C)CC(=O)N(C)[C@@H](CC(C)C)C(=O)N[C@@H]([C@@H](C)CC)C(=O)N(C)CC(=O)N(C)[C@H]3C/C=C\CCN(C3=O)[C@@H](Cc3ccc(C(F)(F)F)cc3)C(=O)N(C)CC(=O)N[C@@H](CCc3ccc(C(F)(F)F)c(OC)c3)C(=O)N2C1 [PP1562],0.046,1.7,A (a compound having 10 or more and less than 20 is denoted as A),A (a compound having 10 or more and less than 20 is denoted as A)
CCO[C@@H]1C[C@H]2C(=O)NC3(CC(C)(C)C3)C(=O)N(C)[C@@H](C3CCCC3)C(=O)N(C)[C@H](C(=O)N(C)C)CC(=O)N(C)[C@@H](CC3CCC3)C(=O)N[C@@H]([C@@H](C)CC)C(=O)N(C)CC(=O)N(C)[C@H]3C/C=C\CCN(C3=O)[C@@H](Cc3ccc(C(F)(F)F)cc3)C(=O)N(C)CC(=O)N[C@@H](CCc3ccc(C(F)(F)F)c(OC)c3)C(=O)N2C1 [PP1564],0.073,3,A (a compound having 10 or more and less than 20 is denoted as A),A (a compound having 10 or more and less than 20 is denoted as A)
